This note sets out measurements from patent US10570140B2, “Selective inhibitors of protein arginine methyltransferase 5 (PRMT5)” (Prelude Therapeutics, Incorporated, priority 2017, dated 2020).

Counter-ions that a name gives are not always drawn.

The nature of data set [1]: Rat non-crossover PK study. Format: in vivo. As for the experimental part: In Vivo Pharmacokinetic Properties of Example 47.
In a rat (SD, male, non-fasted) non-crossover PK study, Example 47 was dosed at 1 mg/kg (DMA: 20% HPBCD=5:95, solution) via i.v. administration (N=3) and 1 mg/kg (0.5% Na CMC+0.5% Tween80, solution) via oral gauge (p.o.) (N=3).

In data set [2] the test system is sDMA. Description: sDMA levels in tumor samples of Granta-519 mouse xenograft (WB). Format: in vivo. As for the experimental part: (§1) Granta-519 cells was maintained in DMEM medium supplemented with 10% fetal bovine serum and 2 mM L-Glutamine at 37° C. in an atmosphere of 5% CO2 in air. Cells in exponential growth phase were harvested and 1×10^7 cells in 0.1 mL of PBS with Matrigel (1:1) were injected subcutaneously at the right lower flank region of each mouse for tumor development. The treatments were started when the mean tumor size reaches approximately 300-400 mm^3. […] Example 47 or vehicle (0.5% Na CMC+0.5% Tween80, suspension) were administered orally (QD for Example 47, QD for vehicle) at a dose of 30 mg/kg and 50 mg/kg for 19 and 16 days, respectively. Body weights and tumor size were measured every 3 to 4 days after randomization. Animals were euthanized 12 hours after last dosing, and blood and tumor samples were collected for analysis.
To measure sDMA levels in tumor samples, tumors from each mouse were weighted and homogenized in RIPA buffer supplemented with protease inhibitor (cOmplete™, EDTA-free Protease Inhibitor Cocktail, Roche). Lysate were centrifuged at 14,000 rpm for 30 min at 4° C. to remove debris. Total protein concentrations of lysate were determined by BCA assay (ThermoFisher Scientific, Catalog #: 23225). Equal amount of total proteins from each tumor were separated on SDS-PAGE gel, and sDMA levels were determined by WB as described previously.

Data set [3] has as its system Granta-519. Kind of data set: Tumor growth inhibition in Granta-519 mouse xenograft model. Type of data set: in vivo. As for the experimental part: In Vivo Pharmacodynamic Effect and Tumor Growth Inhibition of Example 47 in Granta-519 Mouse Xenograft Model.
as §1

Data set [4] is described as follows: Body weight in Granta-519 mouse xenograft study. Format: in vivo. As for the experimental part:
as §1

Data set [5] deals with Granta-519 cells. Description: Cell proliferation assay on Granta-519 cells (CCK-8, day 10). Format: cell-based. The conditions noted are these: Homo sapiens, 240 h, Granta-519 cell line, read-out: Prolif. IC50. As for the experimental part: Cell Proliferation Assay to Determine IC50 on Granta-519 Cells
Granta-519 cells were maintained in PRMI 1640 (Corning Cellgro, Catalog #: 10-040-CV) medium supplemented with 10% v/v FBS (GE Healthcare, Catalog #: SH30910.03). Compounds were dissolved in DMSO to make 10 mM stocks and stored at −20° C. Nine-point, 3-fold serial dilutions were made with DMSO with top concentration at 1 mM (working stocks).
On day of experiment, compound working stocks were further diluted at 1:50 with fresh medium in 96 well plate, and 10 μL of diluted drugs were added to a new 96 well plate for proliferation assay. Cells growing at exponential phase were spun down at 1500 rpm for 4 min and resuspend in fresh medium to reach a density of 0.5×10^6 cells/ml. 200 ul of cells were added to 96 well plate containing diluted drugs and incubated for 3 days. DMSO was used a vehicle control.
One day 3, 10 μL of Cell Counting Kit-8 (CCK-8, Jojindo, CK04-13) solution was added to a new 96 well plate. Cells incubated with drugs for 3 days were resuspended by pipetting up and down, and 100 μL of cells were transferred to 96 well plate containing CCK-8 reagent to measure viable cells. Plates were incubated in CO2 incubator for 2 hours and OD450 values were measured with a microplate reader (iMark microplate reader, Bio-Rad).
For re-plating, compound working stocks were diluted at 1:50 with fresh medium and 10 μL of diluted drugs were added to a new 96 well plate. Cells from Day 3 plate (50 ul) were added to 96 well plate containing fresh drug and additional 150 μL of fresh medium was added to reach 200 μL volume. Plate was returned to CO2 incubator and incubated for 3 more days. Viable cells measurement and re-plating were repeated on day 6, and the final viable cells measurement was taken on day 10.
Percentage of viable cells, relative to DMSO vehicle control, were calculated and plotted in Graphpad Prism ([Inhibitor] vs. normalized response−Variable slope) to determine proliferation IC50 values on day 10.

Data set [6] has as its system sDMA. Kind of data set: Western blot for symmetric di-methyl arginine (sDMA) IC50 in Granta cells. Type of data set: cell-based. The conditions noted are these: Homo sapiens, 72 h; Granta-519 cell line, 3 days. Background: Immunoblotting shows a protein as a band on a membrane.
Data set [7] addresses PRMT5/MEP50 complex (Homo sapiens (Human), UniProt O14744). Description: PRMT5 biochemical assay (3H-SAM filter plate, histone H2A substrate). As to conditions: PRMT5/MEP50 5 nM, histone H2A 5 μM, SAM 1 μM; read-out: PRMT5 IC50. As for the experimental part:
Biochemical Assay Protocol
Compounds were solubilized and 3-fold diluted in 100% DMSO. […] Standard reactions were performed in a total volume of 50 μl in assay buffer, with histone H2A (5 μM final) as substrate. To this was added the PRMT5/MEP50 complex diluted to provide a final assay concentration of 5 nM and the compounds were allowed to preincubate for 15 to 20 minutes at room temperature. The reaction was initiated by adding S-[3H-methyl]-adenosyl-L-methionine (PerkinElmer) to final concentration of 1 μM. Following a 60 minutes incubation at 30° C., the reaction was stopped by adding 100 μL of 20% TCA. Each reaction was spotted onto filter plate (MultiScreen FB Filter Plate, Millipore), and washed 5 times with PBS buffer, Scintillation fluid was added to the filter plate and read in a scintillation counter. IC50 values were determined by fitting the data to the standard 4 parameters with Hill Slope using GraphPad Prism software.

Data set [8] can be described thus: physchem. As to conditions: FaSSIF buffer, 25 °C, thermodynamic from solid.

Chain of PRMT5/MEP50 complex (O14744 whole entry): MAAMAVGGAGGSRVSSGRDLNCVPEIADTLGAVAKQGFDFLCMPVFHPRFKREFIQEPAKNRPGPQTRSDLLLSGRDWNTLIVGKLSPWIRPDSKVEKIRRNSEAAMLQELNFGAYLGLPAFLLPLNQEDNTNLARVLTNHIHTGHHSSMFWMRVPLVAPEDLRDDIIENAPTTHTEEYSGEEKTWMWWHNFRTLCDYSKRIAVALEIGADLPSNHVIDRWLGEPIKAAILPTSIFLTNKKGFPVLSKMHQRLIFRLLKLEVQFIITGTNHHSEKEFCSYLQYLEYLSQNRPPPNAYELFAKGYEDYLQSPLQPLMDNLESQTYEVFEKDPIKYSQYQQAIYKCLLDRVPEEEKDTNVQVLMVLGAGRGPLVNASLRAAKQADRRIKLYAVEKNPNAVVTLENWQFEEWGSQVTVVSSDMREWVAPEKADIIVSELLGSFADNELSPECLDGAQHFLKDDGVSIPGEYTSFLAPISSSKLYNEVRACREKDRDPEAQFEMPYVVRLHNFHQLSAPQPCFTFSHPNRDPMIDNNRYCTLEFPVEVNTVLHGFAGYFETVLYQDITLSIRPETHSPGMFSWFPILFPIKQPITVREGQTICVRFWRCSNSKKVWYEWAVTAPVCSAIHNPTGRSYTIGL
Chain of PRMT5/MEP50 complex (Q9BQA1 whole entry partner): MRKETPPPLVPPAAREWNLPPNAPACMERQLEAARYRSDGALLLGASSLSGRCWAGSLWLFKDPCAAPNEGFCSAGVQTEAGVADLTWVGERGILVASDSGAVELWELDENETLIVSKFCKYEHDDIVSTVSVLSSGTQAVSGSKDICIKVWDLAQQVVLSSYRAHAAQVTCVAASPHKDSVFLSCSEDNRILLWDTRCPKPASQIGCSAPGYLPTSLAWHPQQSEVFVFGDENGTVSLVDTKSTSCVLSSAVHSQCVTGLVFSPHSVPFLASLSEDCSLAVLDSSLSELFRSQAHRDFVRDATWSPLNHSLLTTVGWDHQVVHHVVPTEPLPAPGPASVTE

In turn, `C[C@@]1(O)[C@@H]([C@H](O)c2ccc(Cl)c(Cl)c2)O[C@@H](n2ccc3c(N)ncnc32)[C@@H]1O` [Example 47, (2R,3S,4R,5R)-5-(4-amino-7H-pyrrolo[2,3-d]pyrimidin-7-yl)-2-((R)-(3,4-dichlorophenyl)(hydroxy)methyl)-3-methyltetrahydrofuran-3,4-diol] showed a half-life in data set [1] (blood, iv, rat (SD, male, non-fasted), 1 mg/kg i.v., average) of 4.1 h. Moreover, in data set [1] (male, SD, blood, iv, rat, 1 mg/kg i.v., average, read-out: Vss), the Vd is 3.1 L/kg. Moreover, the bioavailability in data set [1] (male, SD, blood, po, rat, 1 mg/kg p.o.) is above 100%. For the same compound, the clearance in data set [1] (male, SD, whole blood, iv, rat, 1 mg/kg i.v., average) was found to be 0.528 L/h/kg. Besides, the “dose normalized AUC” value in data set [1] (rat, 1 mg/kg p.o., average) was determined as 3246 ng·kg·h/mL/mg. The sDMA in tumor entry in data set [2] (50 mg/kg) is on record as “no detectable sDMA”. Moreover, the inhibition at 30 mg/kg in data set [2] (Mus musculus, Granta-519, 30 mg/kg) was above 90%. The tumor growth inhibition came to 46% in data set [3] (30 mg/kg orally QD, 19 days, average (N=5)) and 79% in data set [3] (50 mg/kg orally QD, 16 days, average). For the same compound, the body weight loss was determined as 1% in data set [4] (30 mg/kg orally QD, 19 days) and 8% in data set [4] (50 mg/kg orally QD, 16 days). The IC50 in data set [5] came out at 0.075 µM; in data set [6], 0.031 µM; in data set [7] it was 0.0015 µM.
In data set [8], `C[C@@]1(O)[C@@H]([C@H](O)c2ccc(Cl)c(Cl)c2)O[C@@H](n2ccc3c(N)ncnc32)[C@@H]1O` [Example 48, (2R,3S,4R,5R)-5-(4-amino-7H-pyrrolo[2,3-d]pyrimidin-7-yl)-2-((R)-(3,4-dichlorophenyl)(hydroxy)methyl)-3-methyltetrahydrofuran-3,4-diol Sulfate Salt] yielded a solubility at 4 h of 0.206 mg/mL.
Take `C[C@@]1(O)[C@@H]([C@H](O)c2ccc(Cl)cc2)O[C@@H](n2ccc3c(N)ncnc32)[C@@H]1O` [Example 26, (2R,3S,4R,5R)-5-(4-amino-7H-pyrrolo[2,3-d]pyrimidin-7-yl)-2-((R)-(4-chlorophenyl)(hydroxy)methyl)-3-methyltetrahydrofuran-3,4-diol]: the IC50 in data set [5] worked out at 0.66 µM; in data set [6], 0.0514 µM; in data set [7], 0.0048 µM.
As for `Cc1cc([C@@H](O)[C@H]2O[C@@H](n3ccc4c(N)ncnc43)[C@H](O)[C@]2(C)O)ccc1Cl` [Example 56, (2R,3S,4R,5R)-5-(4-amino-7H-pyrrolo[2,3-d]pyrimidin-7-yl)-2-((R)-(4-chloro-3-methylphenyl)(hydroxy)methyl)-3-methyltetrahydrofuran-3,4-diol], the figures for the IC50 in data set [5] and in data set [7] were 0.203 µM and 0.068 µM, respectively.
Turning to `C[C@@]1(O)[C@@H]([C@H](O)c2ccc(F)c(C(F)(F)F)c2)O[C@@H](n2ccc3c(N)ncnc32)[C@@H]1O` [Example 63, (2R,3S,4R,5R)-5-(4-amino-7H-pyrrolo[2,3-d]pyrimidin-7-yl)-2-((R)-(4-fluoro-3-(trifluoro-methyl)phenyl)(hydroxy)methyl)-3-methyltetrahydrofuran-3,4-diol], the IC50 in data set [5] was determined as 0.231 µM; in data set [6] it was 0.071 µM; in data set [7], 0.003 µM.
As for `C[C@@]1(O)[C@@H](COc2ccc3ccc(N)nc3c2)O[C@@H](n2ccc3c(N)ncnc32)[C@@H]1O` [Example 1, (2R,3S,4R,5R)-5-(4-amino-7H-pyrrolo[2,3-d]pyrimidin-7-yl)-2-(((2-aminoquinolin-7-yl)oxy)methyl)-3-methyltetrahydrofuran-3,4-diol], the IC50 was found to be 0.04 µM in data set [5], 0.015 µM in data set [6] and 0.00075 µM in data set [7].
Regarding `CSC[C@H]1O[C@@H](n2ccc3c(N)ncnc32)[C@H](O)[C@]1(C)O` [Example 17, (2S,3S,4R,5R)-5-(4-amino-7H-pyrrolo[2,3-d]pyrimidin-7-yl)-3-methyl-2-((methylthio)methyl)tetrahydrofuran-3,4-diol], the values for the IC50 in data set [5], in data set [6] and in data set [7] were 200 µM, 1 µM and 0.9 µM, respectively.
Turning to `Cc1ncnc2c1ccn2[C@@H]1O[C@H]([C@H](O)c2ccc(Cl)c(Cl)c2)[C@@](C)(O)[C@H]1O` [Example 58, (2R,3S,4R,5R)-2-((R)-(3,4-dichlorophenyl)(hydroxy)methyl)-3-methyl-5-(4-methyl-7H-pyrrolo[2,3-d]pyrimidin-7-yl)tetrahydrofuran-3,4-diol], the IC50 worked out at 10 µM in data set [5], 3.16 µM in data set [6] and 0.011 µM in data set [7].
In the case of `Cc1cc([C@@H](O)[C@H]2O[C@@H](n3ccc4c(C)ncnc43)[C@H](O)[C@]2(C)O)ccc1Cl` [Example 57, (2R,3S,4R,5R)-2-((R)-(4-chloro-3-methylphenyl)(hydroxy)methyl)-3-methyl-5-(4-methyl-7H-pyrrolo[2,3-d]pyrimidin-7-yl)tetrahydrofuran-3,4-diol], the IC50 worked out at 0.913 µM in data set [5] and 0.011 µM in data set [7].
For the compound `C[C@@]1(O)[C@@H](COc2ccc3ccc(N)nc3c2)O[C@@H](n2cc(F)c3c(N)ncnc32)[C@@H]1O` [Example 6, (2R,3S,4R,5R)-5-(4-amino-5-fluoro-7H-pyrrolo[2,3-d]pyrimidin-7-yl)-2-(((2-aminoquinolin-7-yl)oxy)methyl)-3-methyltetrahydrofuran-3,4-diol], the IC50 is 0.03 µM in data set [5], 0.001 µM in data set [6] and 0.00085 µM in data set [7].

The term half-life denotes the time in which the quantity being followed falls by half. Low values mean rapid decline, high ones slow decline. The term bioavailability denotes the share of a dose that reaches the circulation, judged against a reference dose that is usually intravenous. The term clearance denotes the rate of elimination divided by the concentration. Usually inhibition stands for the drop in the measured response relative to a control, in per cent. By IC50 is commonly meant the midpoint of a concentration-inhibition curve. By solubility is commonly meant how much of the substance goes into solution per volume. Low readings indicate little dissolved substance, high ones much dissolved substance.
